{"source": "patent US20240166726A1", "about": "“UNIVERSAL TARGETING STRATEGY TO INHIBIT REPLICATION OF ZIKV AND FLAVIVIRUSES” (Sanford Burnham Prebys Medical Discovery Institute, priority 2022, published 2024)", "key": {"[1]": {"target": "T1, ZIKV NS2B-NS3pro (Zika virus, UniProt A0A024B7W1)", "T1 construct": "hydrophilic cytoplasmic portion of NS2B (residues 48-94) was linked to the NS3 protease domain; was linked to the NS3 protease domain via a 9-residue linker L; His tag (N, cleaved yes); made in house; host or cells: E. coli BL21 (DE3) Codon Plus", "T1 sequence (A0A024B7W1 1503-1680)": "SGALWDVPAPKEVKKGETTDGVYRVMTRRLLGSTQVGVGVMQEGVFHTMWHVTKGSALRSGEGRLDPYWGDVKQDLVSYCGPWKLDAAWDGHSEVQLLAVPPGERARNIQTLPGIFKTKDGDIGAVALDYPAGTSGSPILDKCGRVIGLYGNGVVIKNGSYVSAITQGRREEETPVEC", "T1 sequence (A0A024B7W1 1420-1466)": "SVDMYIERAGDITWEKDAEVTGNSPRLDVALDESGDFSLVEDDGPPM", "experiment": "Inhibition of ssRNA binding to NS2B-NS3pro by inhibitors (RNA FP assay)", "source_text": "The DNA constructs were cloned into pGEX6P1 plasmid using BamH1 and EcoR1 cleavage sites, resulting in fusion of a GST tag at the N-terminus of the NS2B cofactor. E. coli were transformed with the individual recombinant constructs, and protein production was induced and the cells were disrupted as described above. The supernatant fraction containing the GST-tagged constructs were loaded onto Protino Glutathione Agarose 4B beads and impurities were removed by washing with TBS. To cleave the GST tag from the viral protease, the beads were co-incubated with 3C protease. The NS2B-NS3pro constructs were then additionally purified by gel filtration on an S200 26/60 column equilibrated with TBS. Purity of the purified construct was analyzed using SDS-PAGE followed by Coomassie staining. Purified protease was concentrated to approximately 10 mg/ml using 10 kDa-cutoff concentrators, flash frozen in small aliquots, and stored at −80° C. […]\nFluorescence polarization assay of RNA/ssDNA binding to ZIKV NS2B-NS3 protease. Binding between purified recombinant ZIKV NS2B-NS3pro constructs and either RNA or ssDNA was assessed using a fluorescence polarization (FP) assay conducted in 0.1 ml of TBS containing 1 mM MgCl2 at 25° C. for 1 h. […] Polarization was monitored on a Bruker Daltonics fluorescence spectrophotometer. […]"}, "[2]": {"target": "T2, DENV2 NS2B-NS3pro (Dengue virus type 2, UniProt P29990)", "T2 construct": "comprises an NS2B polypeptide that associates with a proteolytic N-terminal fragment of NS3 polypeptide (NS3pro); a proteolytic N-terminal fragment of NS3 polypeptide (NS3pro) to form NS2B-NS3pro", "T2 sequence (P29990 1346-1475)": "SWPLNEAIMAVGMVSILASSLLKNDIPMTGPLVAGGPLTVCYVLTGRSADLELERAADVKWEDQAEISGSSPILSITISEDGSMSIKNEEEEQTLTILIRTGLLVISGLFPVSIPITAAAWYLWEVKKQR", "T2 sequence (P29990 1476-1653)": "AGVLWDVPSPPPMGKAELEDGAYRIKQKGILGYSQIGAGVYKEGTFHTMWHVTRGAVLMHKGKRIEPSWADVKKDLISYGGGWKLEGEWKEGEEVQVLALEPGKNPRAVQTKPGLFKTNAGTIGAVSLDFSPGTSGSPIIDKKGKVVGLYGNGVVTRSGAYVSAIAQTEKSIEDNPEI", "experiment": "Inhibition of NS2B-NS3pro proteolysis, DENV2", "format": "biochemical", "conditions": "in vitro", "source_text": "(§1) The open conformation of NS2B-NS3pro is formed by rearrangement/dissociation of the NS2B cofactor from the C-terminal half of NS3pro, leading to a loss of proteolytic activity. NS2B dissociation uncovers a hydrophobic cleft in NS3pro, which presents a druggable pocket that is relatively conserved between the flaviviruses. Allosteric inhibitors of ZIKV, WNV, and DENV2 NS2B-NS3pro were designed in silico to bind a region of NS2B-NS3pro distant from the proteolytic active site. […] RNA binding to ZIKV NS2B-NS3pro was tested with a sub-library of these inhibitors, and some compounds were potent inhibitors of RNA binding to ZIKV NS2B-NS3pro, as depicted in FIG. 7. In Top of FIG. 7, small molecule allosteric inhibitors (10 μM) targeting open/super-open conformations of ZIKV NS2B-NS3pro block ssRNA binding. Fluorescent polarization (%) using FAM labeled ssRNA (20 poly-rU). * p<0.05, […], *** p<0.0005, […] by two-tailed unpaired t-test with Welch's correction. In Bottom of FIG. 7, IC50 for inhibition of ZIKV, WNV, and DENV2 NS2B-NS3pro proteolysis by the indicated inhibitors. […] NSC86314 was previously shown to inhibit WNV and DENV2 replicons in cell-based assays with IC50 values of<50 μM. […]"}, "[3]": {"target": "T3, WNV NS2B-NS3pro (West Nile virus, UniProt P06935)", "T3 construct": "comprises an NS2B polypeptide that associates with a proteolytic N-terminal fragment of NS3 polypeptide (NS3pro); a proteolytic N-terminal fragment of NS3 polypeptide (NS3pro) to form NS2B-NS3pro", "T3 sequence (P06935 1371-1501)": "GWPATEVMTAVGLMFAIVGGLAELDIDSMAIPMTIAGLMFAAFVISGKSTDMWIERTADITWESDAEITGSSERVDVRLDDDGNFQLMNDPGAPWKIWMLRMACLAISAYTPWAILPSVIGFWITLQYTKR", "T3 sequence (P06935 1502-1679)": "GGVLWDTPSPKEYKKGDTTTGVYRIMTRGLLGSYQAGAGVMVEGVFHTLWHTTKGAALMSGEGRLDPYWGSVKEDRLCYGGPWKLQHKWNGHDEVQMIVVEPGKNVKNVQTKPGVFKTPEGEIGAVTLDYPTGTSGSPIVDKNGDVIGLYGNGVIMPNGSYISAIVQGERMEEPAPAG", "experiment": "Inhibition of NS2B-NS3pro proteolysis, WNV", "format": "biochemical", "conditions": "in vitro", "source_text": "as §1"}, "[4]": {"target": "T1, ZIKV NS2B-NS3pro", "experiment": "Fluorescent proteinase activity assay (Pyr-RTKR-AMC cleavage)", "format": "biochemical", "protocol": "Fluorescent proteinase activity assay and IC50 determination. The peptide cleavage activity assays with purified ZIKV NS2B-NS3pro polypeptides were performed in 0.2 ml TBS containing 20% glycerol and 0.005% Brij 35 containing 20 μM of the cleavage peptide pyroglutamic acid Pyr-Arg-Thr-Lys-Arg-7-amino-4-methylcoumarin (Pyr-RTKR-AMC) and 10 nM enzyme. The reaction velocity was monitored continuously at λex=360 nm and λem=465 nm on a Tecan fluorescence spectrophotometer (Männedorf, Switzerland). To determine the IC50 values of the inhibitory compounds, ZIKV NS2B-NS3pro constructs (20 nM) were preincubated for 30 min at 20° C. with various concentrations of compounds in 0.1 ml TBS containing 20% glycerol and 0.005% Brij 35. Pyr-RTKR-AMC substrate (20 μM) was then added in 0.1 ml of the same buffer. IC50 values were calculated by determining the compound concentration required to obtain 50% of the maximal inhibition of NS2B-NS3pro activity against Pyr-RTKR-AMC. GraphPad Prism was used as fitting software. All assays were performed in triplicate in 96-well plates.\nFluorogenic substrate cleavage assays were performed to test whether binding of RNA interferes with the proteolytic activity of NS2B-NS3pro."}, "[5]": {"system": "DENV2 replicons", "conditions": "cell-based assays, previously shown; cited from earlier work"}, "[6]": {"system": "WNV replicons", "conditions": "cell-based assays, previously shown; cited from earlier work"}}, "data": [{"compound": "aprotinin", "values": [{"measurement": "RNA binding to purified NS2B-NS3pro-inhibitor complex", "setting": "[1]; closed conformation induced by substrate-mimicking inhibitor", "value": "no RNA binding"}]}, {"compound": "Nc1cc(N)c(N=Nc2ccc(S(=O)(=O)Nc3nccs3)cc2)cc1N=Nc1ccc(S(=O)(=O)Nc2nccs2)cc1", "note": "[NSC86314]", "values": [{"measurement": "IC50, NS2B-NS3pro from DENV", "setting": "[2]", "value": "low to sub-micromolar"}, {"measurement": "IC50, NS2B-NS3pro from WNV", "setting": "[3]", "value": "low to sub-micromolar"}, {"measurement": "IC50, NS2B-NS3pro from ZIKV", "setting": "[4]; in vitro", "value": "low to sub-micromolar"}, {"measurement": "IC50", "setting": "[5]", "value": "< 50", "unit": "µM"}, {"measurement": "IC50", "setting": "[6]", "value": "< 50", "unit": "µM"}]}, {"compound": "O=C(O)c1cc(/N=N/c2ccc(S(=O)(=O)Nc3nccs3)cc2)ccc1O", "note": "[NSC114428]", "values": [{"measurement": "Inhibition of RNA binding", "setting": "[1]; FIG. 7", "value": "low μM range"}, {"measurement": "Inhibition of proteolytic activity of ZIKV protease", "setting": "[4]; FIG. 7", "value": "low μM range"}]}]}
